Measured values from patent US10899776B2, “Antiviral and antibacteria agents based on quaternary ammonium compound complexed with boric acid and its derivatives” (B-Organic Films Corp, priority 2015, dated 2021).
Read-outs that look alike come from different tables or passages of the source.

Tested on: L. vannamei shrimp gene expression
Protocol: RNA is extracted using TRIzol® and the Qiagen RNeasy® Mini Kit (Qiagen, Germantown, Md., USA). Shrimp samples immersed in TRIzol® are placed in the FastPrep®-24 (MP Biomedicals LLC, Solon, Ohio, USA) and homogenized during 4° C. for 40 s pulses at 6 m/s. A volume of 200 μL of chloroform is added to a 1.5 mL RNase free tube containing the homogenate material and inverted 15 times. Samples are incubated at room temperature for 3 min before centrifuged at 8000 g for 15 min at 4° C. using the Eppendorf centrifuge. The supernatant is carefully transferred into a new 1.5 mL RNase free tube and the extraction continued following the manufacturer's protocol.
The quality and quantity of RNA are determined by the NanoDrop™ 1000 spectrophotometer (Thermo Fisher Scientific, Waltham, Mass., USA) and Bio-Rad™ (Bio-Rad, Hercules, Calif., USA) using denatured gel electrophoresis with formaldehyde and buffer MOPS 1× (Sambrook, J. 1989. in: «Molecular cloning—a laboratory manual, 2nd ed». J. Sambrook, E. F. Fritsch, T. Maniatis Eds. Cold Spring Harbor, N.Y.: Cold Spring Harbor Laboratory Press).
Microarrays are designed based on publically available gene sequences and ESTs determined from cDNA libraries representing multiple tissues of male and female L. vannamei shrimp, and/or of various physiological conditions.
In total, a length of oligonucleotides about of 61440-mer is included in this study: 39592 shrimp ESTs; 1216 Quality control spots; 112 positive control Alexa-555 dye; 80 positive control Alexa 647 dye; 20320 Unigenes; 16 astringent positive control alexa-555: 16 astringent positive control Alexa-647 dye and 88 negative control empty are submitted to the MYcroarray (University of Michigan, Chemical Engineering Department) for printing on aminosaline glass slides. The exposure and reference sample RNAs are adjusted to final volume 19 μL with oligo d(T) (2 μg/μL) and random primers. (1 μg/μL) in water molecular biology grade. The samples are incubated at 70° C. for 10 min and are then chilled in ice. The samples are mixed finally with 5× Reaction Buffer Superscript II kit (Invitrogen, Life technologies, Carlsbad Calif., USA): 25 mM MgCl2; aminoallyl-dNTP with dUTP (3:1); 0.1 M DTT and 200 U/μL Superscript II Reverse Transcriptase. The mix is incubated at 25° C. for 10 min and then at 42° C. for 2 hours. RNA hydrolysis is made with 5 μL of NaOH 1 N and 1 μL of EDTA 0.5 M. The mixture is incubated at 65° C. for 10 min, and then added 25 μL of HEPES 1 M at pH 7.5. […] The aminoallyl-DNA (aa-DNA) is purified using QIAquick™ (Qiagen, Duesseldorf, Germany). A volume of 7 μL of sodium acetate 3 M and 400 μL binding buffer supplied by the Kit are added. The mixture is allowed to stand 5 min according to the manufacturer's instructions for purification. The eluted aa-DNA is concentrated in a Vacufuge™ until dry and is resuspended in 4.5 μL of sodium bicarbonate 100 mM (pH 9.0). The reaction is conducted in darkness at room temperature overnight. The aa-DNA labeled is purified using QIAquick™ (Qiagen, Duesseldorf, Germany) and eluted with 50 uL water. The aa-DNA labeled is quantified in a Nanodrop™ 1000 spectrophotometer (Thermo Fisher Scientific, Waltham, Mass., USA).
After completely drying in a Vacufuge concentrator, the aa-DNA labeled is resuspended in hybridation mixture containing: ˜0.1 optical density units of aa-DNA labeled from each sample; SSC (5×) buffer; 0.1% SDS; 1× buffer TE. The hybridation mixture is desaturated at 94° C. for 5 min and finally at 65° C. for 30 s. The mixture is placed in the microarray slide previously placed in a chamber for microarray hybridization and covered using a RNase-free plastic coverslip (Hybrislip, Schleicher & Schuell, HS40—40×22 mm; HS22—22×22 mm via Thomas Scientific). The hybridation chamber is incubated at 42° C. overnight.
The slide is placed in a 50 mL conical tube for the first wash and a volume of 50 mL of SSC (1×) buffer and of SDS 0.05% are added for 1 min.

[1] = 2-Down regulated genes, feed 5 mg/g
[2] = 2-Up regulated genes, feed 5 mg/g
[3] = 2-fold Down-regulated genes (treated) versus all genes
[4] = 2-fold Up-regulated genes (treated) versus all genes
[5] = diets supplemented with the complex
[6] = feed 5 mg/g, 14 days, of 262 2-fold Down-regulated genes
[7] = feed 5 mg/g, 14 days, of 583 2-fold Up-regulated genes
[8] = treated vs control shrimp, 57,193 spots available to analysis

For `C[N+](C)(C)CCOB1OB2OB(O1)OB1OB(O2)O1.[Cl-]` [choline/pentaborate complex], the “# Enzymes, Aminoacyl-tRNA biosynthesis” value [1] was 3, the “# Enzymes, Ascorbate and aldarate metabolism” value [1] was 2 and the “# Enzymes, Glycolysis/Gluconeogenesis” value [1] was 3. For the same compound, the “# Enzymes, Oxidative phosphorylation” value [1] was 4, the “# Enzymes, Pentose and glucuronate interconversions” value [1] was 2 and the “# Enzymes, Pentose phosphate pathway” value [1] was 5. For the same compound, the “# Enzymes, Phenylalanine metabolism” value [1] was 1, the “# Enzymes, Phenylpropanoid biosynthesis” value [1] was 1 and the “# Enzymes, Purine metabolism” value [1] was 3. For the same compound, the “# Enzymes, Starch and sucrose metabolism” value [1] was 2, the “# Genes, Aminoacyl-tRNA biosynthesis” value [1] was 3 and the “# Genes, Ascorbate and aldarate metabolism” value [1] was 3. For the same compound, the “# Genes, Glycolysis/Gluconeogenesis” value [1] was 3, the “# Genes, Oxidative phosphorylation” value [1] was 6 and the “# Genes, Pentose and glucuronate interconversions” value [1] was 3. For the same compound, the “# Genes, Pentose phosphate pathway” value [1] was 5, the “# Genes, Phenylalanine metabolism” value [1] was 3 and the “# Genes, Phenylpropanoid biosynthesis” value [1] was 3. The “# Genes, Purine metabolism” value [1] was 4, the “# Genes, Starch and sucrose metabolism” value [1] was 5 and the “# Enzymes, Amino sugar and nucleotide Sugar metabolism” value [2] was 7. The “# Enzymes, Cytochrome P450” value [2] was 3, the “# Enzymes, Glutathione metabolism” value [2] was 5 and the “# Enzymes, Glycolysis” value [2] was 8. The “# Enzymes, Oxidative phosphorylation” value [2] was 6, the “# Enzymes, Pentose phosphate pathway” value [2] was 4 and the “# Enzymes, Purine metabolism” value [2] was 7. For the same compound, the “# Enzymes, Pyruvate metabolism” value [2] was 6, the “# Enzymes, Valine, leucine and isoleucine degradation” value [2] was 6 and the “# Genes, Amino sugar and nucleotide Sugar metabolism” value [2] was 8. For the same compound, the “# Genes, Cytochrome P450” value [2] was 6, the “# Genes, Glutathione metabolism” value [2] was 7 and the “# Genes, Glycolysis” value [2] was 8. For the same compound, the “# Genes, Oxidative phosphorylation” value [2] was 18, the “# Genes, Pentose phosphate pathway” value [2] was 5 and the “# Genes, Purine metabolism” value [2] was 14. For the same compound, the “# Genes, Pyruvate metabolism” value [2] was 6, the “# Genes, Valine, leucine and isoleucine degradation” value [2] was 6 and the “Fisher's exact test GO term Extracellular region part” value [3] was 5.69%. For the same compound, the “Fisher's exact test GO term Gas transport” value [3] was 2.03%, the “Fisher's exact test GO term Oxygen transporter activity” value [3] was 2.03% and the “Fisher's exact test GO term Photoreceptor cell differentiation” value [3] was 2.43%. For the same compound, the “Fisher's exact test GO term Regulation of protein metabolic process” value [3] was 10.56%, the “Fisher's exact test GO term Starch metabolic process” value [3] was 2.03% and the “Fisher's exact test GO term Sucrose metabolic process” value [3] was 2.03%. For the same compound, the “Fisher's exact test GO term Toll-like Receptor for signaling pathway” value [3] was 1.62%, the “Fisher's exact test GO term Translation factor activity, nucleic acid binding” value [3] was 4.47% and the “Fisher's exact test GO term Transporter activity” value [3] was 10.56%. For the same compound, the “Fisher's exact test GO term extracellular region” value [3] was 9.75%, the “Fisher's exact test GO term extracellular space” value [3] was 4.87% and the “Fisher's exact test GO term Actin Cytoskeleton” value [4] was 4.62%. For the same compound, the “Fisher's exact test GO term Calcium Ion Binding” value [4] was 4.25%, the “Fisher's exact test GO term Cytoskeletal Protein Binding” value [4] was 5.55% and the “Fisher's exact test GO term Hydrogen Transport” value [4] was 4.81%. The “Fisher's exact test GO term Ion Transport” value [4] was 8.15%, the “Fisher's exact test GO term Monosaccharide Metabolic Process” value [4] was 4.10% and the “Fisher's exact test GO term Monovalent Inorganic Cation Transport” value [4] was 5.92%. For the same compound, the “Fisher's exact test GO term Positive Regulation of Biosynthetic Process” value [4] was 3.70%, the “Fisher's exact test GO term Positive Regulation of Cellular Biosynthetic Process” value [4] was 3.70% and the “Fisher's exact test GO term Proton Transport” value [4] was 4.81%. The “number of immune related genes that are over-expressed” value (2-fold Up-regulated, GO term 0006955, feed 5 mg/g, 14 days) was “at least 33”, the “number of modulated genes associated to Biogenesis” value [5] was 59 and the “number of modulated genes associated to Biological regulation” value [5] was 73. For the same compound, the “number of modulated genes associated to Cellular process” value [5] was 159, the “number of modulated genes associated to Developmental process” value [5] was 40 and the “number of modulated genes associated to Localization” value [5] was 66. For the same compound, the “number of modulated genes associated to Metabolic process” value [5] was 166, the “number of modulated genes associated to Response to stimuli” value [5] was 43 and the “number of modulated genes associated to Signaling” value [5] was 26. The “number of 2-fold Up-regulated genes” value (feed 5 mg/g, 14 days) was 583, the “number of genes with a 2-fold Down-regulated expression” value (feed 5 mg/g, 14 days) was 262 and the “Down-regulated genes in biological process Biological Regulation” value [6] was 9%. The “Down-regulated genes in biological process Cellular Component Organization or Biogenesis” value [6] was 7%, the “Down-regulated genes in biological process Cellular Process” value [6] was 20% and the “Down-regulated genes in biological process Developmental Process” value [6] was 5%. The “Down-regulated genes in biological process Localization” value [6] was 8%, the “Down-regulated genes in biological process Metabolic Process” value [6] was 20% and the “Down-regulated genes in biological process Multicellular Process” value [6] was 6%. For the same compound, the “Down-regulated genes in biological process Response to Stimulus” value [6] was 5%, the “Down-regulated genes in biological process Signaling” value [6] was 3% and the “Down-regulated genes in biological process Single-organism Process” value [6] was 17%. The “Down-regulated genes with molecular function Binding” value [6] was 44%, the “Down-regulated genes with molecular function Catalytic Activity” value [6] was 40% and the “Down-regulated genes with molecular function Enzyme Regulator Activity” value [6] was 3%. The “Down-regulated genes with molecular function Structural Molecule Activity” value [6] was 4%, the “Down-regulated genes with molecular function Transporter Activity” value [6] was 9% and the “Up-regulated genes in biological process Biological Regulation” value [7] was 9%. For the same compound, the “Up-regulated genes in biological process Cellular Component Organization or Biogenesis” value [7] was 7%, the “Up-regulated genes in biological process Cellular Processes” value [7] was 20% and the “Up-regulated genes in biological process Developmental Process” value [7] was 6%. The “Up-regulated genes in biological process Localization” value [7] was 7%, the “Up-regulated genes in biological process Metabolic Process” value [7] was 18% and the “Up-regulated genes in biological process Multicellular Organismal Process” value [7] was 6%. For the same compound, the “Up-regulated genes in biological process Response to Stimulus” value [7] was 6%, the “Up-regulated genes in biological process Signaling” value [7] was 4% and the “Up-regulated genes in biological process Single-organism Process” value [7] was 17%. The “Up-regulated genes with molecular function Binding Activity” value [7] was 44%, the “Up-regulated genes with molecular function Catalytic Activity” value [7] was 43% and the “Up-regulated genes with molecular function Structural Molecule Activity” value [7] was 6%. The “Up-regulated genes with molecular function Transporter Activity” value [7] was 7%, the “Number of spots, Expression Levels (Score) 1 to 1.5” value [8] was 3,662 and the “Number of spots, Expression Levels (Score) 1.5 to 2” value [8] was 1,984. The “Number of spots, Expression Levels (Score) <−2” value [8] was 1,434, the “Number of spots, Expression Levels (Score) >2” value [8] was 1,650 and the “Number of spots, Expression Levels (Score) −1.5 to −1” value [8] was 3,221. The “Number of spots, Expression Levels (Score) −1.5 to −2” value [8] was 1,259 and the “Number of spots, No regulated genes (−1 to 1)” value [8] was 43,950.
